Like-named read-outs stand apart in the source and are kept apart here.
Columns and labels:
CBG = conditions: cited from earlier work
Cleaved human CBG-WT [1] = target: T1, Cleaved human CBG-WT (Homo sapiens, UniProt P08185, K148A); test: Isothermal titration calorimetry, steroid titrated to neutrophil elastase-cleaved human CBG-WT; assay type: binding; conditions: ITC, 25°C
T1 construct: residues 11 to 383 of human CBG (Swiss-Prot entry P08185); GST (N, cleaved yes); made in house; host or cells: E. coli BL21 Star (DE3)
T1 sequence (P08185 33-366 K148A): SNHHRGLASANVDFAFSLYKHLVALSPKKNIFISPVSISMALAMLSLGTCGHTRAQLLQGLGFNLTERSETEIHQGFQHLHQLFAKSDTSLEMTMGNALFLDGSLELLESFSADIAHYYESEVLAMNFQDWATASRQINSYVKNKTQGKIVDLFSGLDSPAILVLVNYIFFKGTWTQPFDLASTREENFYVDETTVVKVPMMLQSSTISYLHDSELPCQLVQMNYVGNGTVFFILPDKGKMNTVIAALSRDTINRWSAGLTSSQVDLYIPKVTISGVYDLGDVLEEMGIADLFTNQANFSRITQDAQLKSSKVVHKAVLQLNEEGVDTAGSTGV
T1 sequence (P08185 367-405): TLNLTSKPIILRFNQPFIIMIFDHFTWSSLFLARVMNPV
Description: (§1) Cleavage of the RCL in human and rat CBG mutants was accomplished with 100 mU human neutrophil elastase (Sigma-Aldrich) per mg purified CBG at 30°C and monitored by SDS-PAGE. The cleavage reaction was stopped with AEBSF. The protein samples were dialyzed against ITC buffer (20 mM potassium phosphate, 50 mM NaCl, pH 7.4) and titrated with steroids in a VP-ITC microcalorimeter (Microcal, Piscataway). All solutions were filtered (0.2 µm filter pore size) and degassed for 30 min prior to the titration experiments. The sample cell was filled with protein solution containing 15 µM rat CBG or 20 µM human CBG and titrated with steroid solutions containing 150 µM and 200 µM ligand, respectively. The titrations consisted of an initial injection of 2 µL followed by 25 consecutive injections of 10 µL ligand solution at 25°C. A spacing of 240 sec between the injections was used to allow a return to the baseline. Data points from the initial injection, which are generally affected by diffusion during the initial equilibration period after experiment setup, were discarded prior to data analysis. […] The binding curve was generated by plotting the heats of injections against the ratio of ligand to protein in the cell. Integrated heat data were analyzed using nonlinear regression fit with a one-site-binding model in the Origin-7™ software provided with the VP-ITC. Changes in the free energy and entropy can be calculated using the equation: ΔG° = −RTlnK = ΔH°−TΔS°. In this equation ΔG° is the change in Gibbs free energy, R the universal gas constant, T the temperature, and K the association constant. The change in enthalpy is denoted as ΔH°, and ΔS° is the change in entropy under standard conditions. The data shown in Table 2 were obtained from single titrations of each complex.

Cleaved human CBG-WT [2] = test: as above; assay type: binding; conditions: human CBG, uncleaved vs neutrophil elastase-cleaved, ITC 25°C
Description: as §1

uncleaved human CBG = target: uncleaved human CBG; design: method as in PMID 21325280; conditions: cited from earlier work
cleaved human CBG = target: cleaved human CBG; design: method as in PMID 21325280; conditions: 37°C, cited from earlier work
human CBG = target: human CBG; design: method as in PMID 20631013; conditions: 37°C, fluorescence measurements; cited from earlier work
Cleaved rat CBG-RCL1 = target: T2, Cleaved rat CBG-RCL1 (Rattus norvegicus, UniProt P31211, A357V/P358T); test: Isothermal titration calorimetry, steroid titrated to neutrophil elastase-cleaved rat CBG-RCL1; assay type: binding
T2 construct: residues 5 to 374 of rat CBG (P31211); GST (N, cleaved yes); made in house; host or cells: E. coli BL21 Star (DE3)
T2 sequence (P31211 27-396 A357V/P358T limits assumed): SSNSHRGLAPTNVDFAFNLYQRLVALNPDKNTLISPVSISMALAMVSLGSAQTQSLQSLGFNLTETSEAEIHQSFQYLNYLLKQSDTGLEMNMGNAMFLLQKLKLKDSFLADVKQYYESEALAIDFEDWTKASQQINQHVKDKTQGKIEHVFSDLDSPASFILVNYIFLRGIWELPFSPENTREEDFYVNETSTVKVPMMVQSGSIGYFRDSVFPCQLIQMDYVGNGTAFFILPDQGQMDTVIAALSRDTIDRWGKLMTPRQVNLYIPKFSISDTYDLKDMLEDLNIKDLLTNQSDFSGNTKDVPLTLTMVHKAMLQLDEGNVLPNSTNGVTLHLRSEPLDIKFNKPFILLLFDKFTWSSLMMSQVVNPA
Description: Cleavage of the RCL in human and rat CBG mutants was accomplished with 100 mU human neutrophil elastase (Sigma-Aldrich) per mg purified CBG at 30°C and monitored by SDS-PAGE. The cleavage reaction was stopped with AEBSF.
as §1, with “The” for “Cleavage of the RCL in human and rat CBG mutants was accomplished with 100 mU human neutrophil elastase (Sigma-Aldrich) per mg purified CBG at 30°C and monitored by SDS-PAGE. The cleavage reaction was stopped with AEBSF. The”

[3] = ITC, 25°C, cleaved rat CBG-RCL1

For C[C@]12CCC(=O)C=C1CC[C@@H]1[C@@H]2[C@@H](O)C[C@@]2(C)[C@H]1CC[C@]2(O)C(=O)CO [Hydrocortisone], the “fraction circulating free in plasma” value (CBG) is given as 4–5%, the “fraction of cortisol in plasma bound by CBG” value (CBG) is given as 80–90% and the “TΔS°” value (Cleaved human CBG-WT [1]; cleaved human CBG-WT) is given as -18.7 kcal/mol. For the same compound, the “ΔG°” value (Cleaved human CBG-WT [1]; cleaved human CBG-WT) was -8.68 kcal/mol, the “ΔH°” value (Cleaved human CBG-WT [1]; cleaved human CBG-WT) was -27.41 kcal/mol and the Kd (Cleaved human CBG-WT [1]; single titration, elastase-cleaved human CBG-WT) was 442 ± 10 nM. The “reduction in binding affinity upon RCL cleavage” value (Cleaved human CBG-WT [2]) was “ten-fold”, the Kd (uncleaved human CBG; 22°C, uncleaved human CBG, fluorescence titration, read-out: binding affinity) was 26.9 nM and the Kd (uncleaved human CBG; 37°C, uncleaved human CBG-WT, read-out: K d 37°C) was 292 ± 19 nM. For the same compound, the Kd (cleaved human CBG; cleaved human CBG-WT, read-out: K d 37°C) was 1370 ± 124 nM, the “difference of affinities of uncleaved and cleaved human CBG” value (cleaved human CBG; fluorescence titration) was “about 4.7 fold” and the Kd (human CBG) was 18 nM. For the same compound, the “TΔS°” value (Cleaved rat CBG-RCL1; [3]) was -30.43 kcal/mol, the “ΔG°” value (Cleaved rat CBG-RCL1; [3]) was -9.2 kcal/mol and the “ΔH°” value (Cleaved rat CBG-RCL1; [3]) was -39.63 kcal/mol. The Kd (Cleaved rat CBG-RCL1; ITC, 25°C, single titration, cleaved rat CBG-RCL1) was 209 ± 20 nM and the “decrease in binding affinity upon RCL cleavage” value (Cleaved rat CBG-RCL1; rat CBG, uncleaved vs cleaved rat CBG-RCL1, ITC 25°C) was “about 2 fold”.
